From article PMC6271088, “Quantification of the Resveratrol Analogs trans-2,3-Dimethoxy-stilbene and trans-3,4-Dimethoxystilbene in Rat Plasma: Application to Pre-Clinical Pharmacokinetic Studies” (Molecules, 2014)
“Also recorded” adds a separate entry of the source. Read-outs that look alike come from different tables or passages of the source.

What was measured:
[1] = Oral pharmacokinetics in Sprague-Dawley rats; assay type: in vivo; conditions: for post-dosing plasma samples above LLOQ (10 ng/mL): six rats
Description: (§1) This animal model has been used to investigate the pharmacokinetics of various stilbenes. The animal handling protocol was reviewed and approved by the Institutional Animal Care and Use Committee of the National University of Singapore (NUS). All animal experiments were carried out in Comparative Medicine Centre of NUS. Sprague-Dawley rats (male, 346 ± 18 g, bred by Centre for Animal Resources, NUS) were maintained on a 12 h light/dark cycle with free access to food and water. Polyethylene tube (inner diameter (I.D.) 0.58 mm, outside diameter (O.D.) 0.965 mm, Becton Dickinson, Sparks, MD, USA) was implanted into the right jugular vein under anaesthesia on the day before pharmacokinetic study. This catheter was used for intravenous drug administration as well as for blood sampling.
(§2) Twenty-two rats were divided into four groups. Group 1 and Group 2 (n = 5) received single intravenous bolus dose (4 mg/kg) of 2,3-DMS and 3,4-DMS respectively. Serial blood samples were collected before dosing (0 min) and at 5, 15, 30, 60, 90, 120, 180, 300, 480 and 660 min post-dosing. Group 3 and Group 4 (n = 6) received single oral dose (10 mg/kg) of 2,3-DMS and 3,4-DMS respectively through oral gavage and serial blood samples were collected before dosing (0 min) and at 15, 30, 45, 60, 90, 120, 180, 300, 480 and 660 min post-dosing. 0.3 mL heparin-saline (10 I.U./mL) was used to flush the cannular after each intravenous injection or blood sampling to maintain its patency. Blood samples were centrifuged at 3500 g at 4 °C for 5 min and plasma was collected and stored at −80 °C.
(§3) Pharmacokinetic parameters were derived using WinNonlin standard version 1.0 (Scientific Consulting Inc., Apex, NC, USA). […] Plasma exposure (area under the plasma concentration-time curve from 0 min to last measurable point (AUC0→last)) in rats receiving intravenous administration was calculated by the linear/log trapezoidal rule while the linear trapezoidal rule was used to calculate the plasma exposure in rats receiving oral administration. Clearance (Cl0→last), mean transit time (MTT0→last) and terminal half-life (t1/2 λZ) were calculated using non-compartmental analysis. Maximal plasma concentration (Cmax) and the time required to reach (tmax) were from direct experimental observations. Absolute oral bioavailability (F) of 2,3-DMS was calculated through reported method.

[2] = Post-preparative stability (processed samples in auto-sampler vial); assay type: physicochemical; conditions: rat, Post-preparative samples stored at 24 °C for 24 h, read-out: Stability (% Remained); for remaining at 24 h, 25 ng/mL: spiked 25 ng/mL; for remaining at 24 h, 400 ng/mL: spiked 400 ng/mL; for remaining at 24 h, 1400 ng/mL: spiked 1400 ng/mL
Description: (§4) Stock solutions of analytes were prepared in DMSO to a final concentration of 1 mg/mL, stored at room temperature (24 °C) and protected from light. The internal standard (IS) (trans-stilbene) was prepared by dissolving in acetonitrile and diluted to 100 ng/mL (working solution). Equal volumes of rat liver microsome (RLM) and trans-stilbene–acetonitrile working solution were mixed to quench the reaction. After vigorous vortexing for 20 s, the samples were centrifuged at 6,000 g for 10 min at 4 °C. Rat plasma samples were processed by adding trans-stilbene–acetonitrile working solution to rat plasma in 3:1 ratio. After vigorous vortexing for 20 s, the samples were centrifuged at 10,000 g for 4 min at 4 °C. Finally, the supernatant was transferred into a glass insert that was pre-installed in a 1.5 mL auto-sampler vial. During each assay, 75 µL supernatant was injected into the HPLC-UV system.
(§5) Stabilities of 2,3-DMS in stock solution were evaluated after storage at room temperature for eight days. Stability of 2,3-DMS in rat plasma under different conditions was profiled with QC samples. Freeze-thaw stability was assessed after three freeze (−80 °C)–thaw (24 °C) cycles. Short-term room temperature stability (24 °C) of 2,3-DMS in rat plasma was examined after storing such samples at room temperature for 6 h. Long-term storage stability of 2,3-DMS in rat plasma was studied after being stored at −80 °C for 10 days. Post-preparative stability study was conducted by re-analyzing samples (kept in auto-sampler vial at room temperature) 24 h later. The stability of 3,4-DMS was assessed in the same way. Samples were considered stable if analytical responses were within 100% ± 15% of corresponding freshly prepared samples.

[3] = Stability in rat plasma (QC samples: short-term, freeze-thaw, long-term); assay type: in vitro ADME; conditions: read-out: Stability (% Remained); for remaining at 25 ng/mL / remaining at 400 ng/mL / remaining at 1400 ng/mL: Plasma samples after three freeze-thaw cycles; for remaining at 25 ng/mL / remaining at 6 h, 25 ng/mL / remaining at 240 h, 25 ng/mL: spiked 25 ng/mL; for remaining at 400 ng/mL / remaining at 6 h, 400 ng/mL / remaining at 240 h, 400 ng/mL: spiked 400 ng/mL; for remaining at 1400 ng/mL / remaining at 6 h, 1400 ng/mL / remaining at 240 h, 1400 ng/mL: spiked 1400 ng/mL; for remaining at 6 h, 25 ng/mL / remaining at 6 h, 400 ng/mL / remaining at 6 h, 1400 ng/mL: Plasma samples stored at 4 °C for 6 h; for remaining at 240 h, 25 ng/mL / remaining at 240 h, 400 ng/mL / remaining at 240 h, 1400 ng/mL: Plasma samples stored at −80 °C for 10 days
Description: as §5, with “Short-term room temperature stability (24 °C) of 2,3-DMS in rat plasma was examined after storing such samples at room temperature for 6 h.” left out

[4] = Rat liver microsome metabolic stability; assay type: in vitro ADME, Sprague-Dawley rat; conditions: for half-life at 0.6 µg/mL: Sprague-Dawley, pH 7.4, in the presence of NADPH, 37 °C; for half-life at 0.6 µg/mL / compound remained after microsomal incubation: rat liver microsomes; for stability in acetonitrile-inactivated microsomes: acetonitrile-inactivated microsomes (chemical stability); for compound remained after microsomal incubation: in the absence of NADPH, 45 min incubation
Description: RLM metabolic stabilities of 2,3-DMS and 3,4-DMS were examined by mixing Sprague-Dawley RLM with potassium phosphate buffer (pH = 7.4), NADPH regenerating solution B and either compounds to achieve a final compound concentration of 0.6 µg/mL. Negative control was set up, using Milli-Q water in place of NADPH. Chemical stability of compound in inactivated RLM was checked using similar system with acetonitrile/Milli-Q mixture instead of phosphate buffe.
Pre-incubation was done in 37 °C water bath for 5 min before NADPH A was added to initiate reaction. Aliquots were drawn at 0, 5, 15, 25, 35 and 45 min and quenched using ice cold trans-stilbene–acetonitrile working solution. Chemical stability was monitored at 0, 25 and 45 min. The samples were further processed for HPLC analysis as described above.
To assess extent of metabolism, percentage of compound remaining at each time point with respect to 0 min was calculated. Mean and standard deviation was obtained from column statistics using GraphPad Prism 5, version 5.03 for Windows, via raw means from the six replicates of each setup. Elimination half-lives were obtained from non-linear regression via one-phase exponential decay, where x was time in minutes, y was percentage remaining with respect to 0 min and a weighting factor of 1/y^2 was used.

[5] = Intravenous pharmacokinetics in Sprague-Dawley rats; assay type: in vivo; conditions: intravenous 4 mg/kg; for plasma level relative to LLOQ (10 ng/mL) over sampling period: sampling up to 660 min; for B / α / β / A: two-compartment model; for A: HP-β-CD formulation; for AUC(0-t) / clearance / Vd / half-life: male, Sprague-Dawley, rat, plasma; for clearance: read-out: Cl (clearance); for Vd: read-out: Vc (volume of distribution of the central compartment); for half-life: read-out: t1/2 λZ (terminal elimination half-life)
Description: as §1, §2, §3

[6] = Stock solution stability (DMSO stock, room temperature); assay type: physicochemical; conditions: Stock solution stored at 24 °C for 8 days, read-out: Stability (% Remained)
Description: as §4
Stabilities of 2,3-DMS in stock solution were evaluated after storage at room temperature for eight days. Stability of 2,3-DMS in rat plasma under different conditions was profiled with QC samples. Freeze-thaw stability was assessed after three freeze (−80 °C)–thaw (24 °C) cycles. Short-term room temperature stability (24 °C) of 2,3-DMS in rat plasma was examined after storing such samples at room temperature for 6 h. […] The stability of 3,4-DMS was assessed in the same way. […]

[7] = cited from earlier work

Compound	post-dosing plasma samples above LLOQ (10 ng/mL) ([1]; oral 10 mg/kg)	remaining at 24 h, 25 ng/mL [2]	remaining at 24 h, 400 ng/mL [2]	remaining at 24 h, 1400 ng/mL [2]	remaining at 25 ng/mL [3]	remaining at 400 ng/mL [3]	remaining at 1400 ng/mL [3]	remaining at 6 h, 25 ng/mL [3]	remaining at 6 h, 400 ng/mL [3]	remaining at 6 h, 1400 ng/mL [3]	remaining at 240 h, 25 ng/mL [3]	remaining at 240 h, 400 ng/mL [3]	remaining at 240 h, 1400 ng/mL [3]	half-life at 0.6 µg/mL [4]	stability in acetonitrile-inactivated microsomes [4]	compound remained after microsomal incubation [4]	plasma level relative to LLOQ (10 ng/mL) over sampling period [5]	B [5]	α [5]	oral bioavailability (in words) [7]	other results
COc1ccc(/C=C/c2ccccc2)cc1OC [3,4-DMS, trans-3,4-dimethoxystilbene]	three post-dosing samples collected from one out of six rats	98.1 ± 5.7%	98.1 ± 1.8%	100.1 ± 0.6%	106 ± 5.2%	93.4 ± 0.7%	92.4 ± 2.4%	104 ± 6.6%	94.7 ± 0.7%	96.2 ± 0.4%	91 ± 13.8%	93.6 ± 4.6%	93 ± 3.7%	16.6 min	good stability	78.1% ± 5.3%	became unmeasurable at 11 h	55.9 ± 26.1 ng/mL	5.25 ± 1.45 10^−2 × min^−1		oral bioavailability (in words) ([1]; oral 10 mg/kg, 10 mg/kg): even poorer than 2,3-DMS; also recorded: almost nil; clearance relative to rat hepatic blood flow [5]: three-fold; β [5]: 3.85 ± 2.45 10^−3 × min^−1; A [5]: 702.7 ± 148.5 ng/mL; MTT0→last (mean transit time) ([5]; 4 mg/kg): 61.4 ± 27.1 min; AUC(0-t) [5]: 427 ng·h/mL; clearance [5]: 143 ± 40.5 mL/min/kg; Vd [5]: 5.58 ± 1.73 L/kg; half-life [5]: 193 ± 123 min; remaining at 192 h, 1 mg/mL [6]: 96.7 ± 2.7%
COc1cc(/C=C/c2ccc(OC)c(OC)c2)cc(OC)c1 [trans-3,5,3',4'-tetramethoxystilbene]																				excellent or quite good oral bioavailability	
COc1cccc(/C=C/c2ccccc2)c1OC [2,3-DMS, trans-2,3-Dimethoxystilbene]	32 out of 60	97.2 ± 2.5%	100.1 ± 0.5%	100.6 ± 0.7%	102 ± 4.5%	93.2 ± 1.2%	91.8 ± 2.6%	94.9 ± 4.4%	95.5 ± 1.1%	95.4 ± 0.6%	107 ± 6.6%	96.6 ± 4.7%	93.5 ± 4.1%	14.2 min	good stability	46.6% ± 4.6%	remained quantifiable throughout our sampling period	135.6 ± 40.6 ng/mL	5.02 ± 1.76 10^−2 × min^−1		Cmax ([1]; male, Sprague-Dawley, rat, plasma, oral 10 mg/kg): 37.5 ± 23.7 ng/mL; bioavailability ([1]; male, Sprague-Dawley, rat, plasma, oral 10 mg/kg vs intravenous 4 mg/kg, read-out: F (oral bioavailability)): 2.22 ± 2.13%; AUC(0-t) ([1]; male, Sprague-Dawley, rat, plasma, oral 10 mg/kg, HP-β-CD formulation): 64.3 ng·h/mL; MTT0→last (mean transit time) ([1]; oral 10 mg/kg): 83.2 ± 67.4 min; MTT0→last (mean transit time) [5]: 131.0 ± 4.5 min; β [5]: 3.08 ± 0.73 10^−3 × min^−1; A [5]: 1384.1 ± 251.4 ng/mL; AUC(0-t) [5]: 1160 ng·h/mL; clearance [5]: 52 ± 7 mL/min/kg; Vd [5]: 2.71 ± 0.51 L/kg; half-life [5]: 289 ± 92.9 min; remaining at 192 h, 1 mg/mL [6]: 98.1 ± 2.1%
COc1ccc(/C=C/c2cc(OC)cc(OC)c2)cc1 [3,5,4'-trimethoxysilbene, trans-3,5,4'-trimethoxystilbene]																				excellent or quite good oral bioavailability	
COc1cc(C=Cc2cc(OC)c(OC)c(OC)c2)cc(OC)c1 [3,4,5,3',5'-pentamethoxystilbene]																				excellent or quite good oral bioavailability	
Oc1cc(O)cc(/C=C/c2ccccc2)c1 [pinosylvine, trans-3,5-dihydroxystilbene]																				much poorer than resveratrol	
